Columns and labels:
Experiment in all cases: KINOMEscan competition binding
Details in all cases: compound 10.0 µM
AKT2 (human) = AKT2 (human) (UniProt P31751)
AURKB (human) = AURKB (human) (UniProt Q96GD4)
BMPR2 (human) = BMPR2 (human) (UniProt Q13873)
CAMK2G (human) = CAMK2G (human) (UniProt Q13555)
CDK19 (human) = CDK19 (human) (UniProt Q9BWU1)
CSK (human) = CSK (human) (UniProt P41240)
CSNK2A2 (human) = CSNK2A2 (human) (UniProt P19784)
DCLK1 (human) = DCLK1 (human) (UniProt O15075)
FLT3 (human) = FLT3 (human) (UniProt P36888)
FRK (human) = FRK (human) (UniProt P42685)
GSK3B (human) = GSK3B (human) (UniProt P49841)
Chain of GSK3B (human) (P49841 whole entry, looked up): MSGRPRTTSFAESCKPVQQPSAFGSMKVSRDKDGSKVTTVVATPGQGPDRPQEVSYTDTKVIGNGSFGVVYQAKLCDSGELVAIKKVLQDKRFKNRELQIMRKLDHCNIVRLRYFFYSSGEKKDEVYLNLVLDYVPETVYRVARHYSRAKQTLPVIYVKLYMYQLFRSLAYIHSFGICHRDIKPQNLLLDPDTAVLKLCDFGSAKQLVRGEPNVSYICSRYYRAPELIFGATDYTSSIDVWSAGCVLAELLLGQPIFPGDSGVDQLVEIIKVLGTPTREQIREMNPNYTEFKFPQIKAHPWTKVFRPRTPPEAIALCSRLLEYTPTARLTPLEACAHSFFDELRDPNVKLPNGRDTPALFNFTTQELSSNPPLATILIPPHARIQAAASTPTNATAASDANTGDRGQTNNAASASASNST

IKBKB (human) = IKBKB (human) (UniProt O14920)
INSRR (human) = INSRR (human) (UniProt P14616)
KDR (human) = KDR (human) (UniProt P35968)
LTK (human) = LTK (human) (UniProt P29376)
MAP2K3 (human) = MAP2K3 (human) (UniProt P46734)
Chain of MAP2K3 (human) (P46734 whole entry, looked up): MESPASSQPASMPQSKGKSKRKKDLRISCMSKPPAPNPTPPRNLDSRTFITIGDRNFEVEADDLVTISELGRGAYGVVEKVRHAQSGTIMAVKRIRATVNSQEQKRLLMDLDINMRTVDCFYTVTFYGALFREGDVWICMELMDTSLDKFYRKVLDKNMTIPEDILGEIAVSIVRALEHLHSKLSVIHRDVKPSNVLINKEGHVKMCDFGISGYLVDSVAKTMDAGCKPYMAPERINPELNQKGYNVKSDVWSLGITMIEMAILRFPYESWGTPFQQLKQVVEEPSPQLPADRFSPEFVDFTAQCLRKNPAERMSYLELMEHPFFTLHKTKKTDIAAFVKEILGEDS

MAPK1 (human) = MAPK1 (human) (UniProt P28482)
MAPK4 (human) = MAPK4 (human) (UniProt P31152)
Chain of MAPK4 (human) (P31152 whole entry, looked up): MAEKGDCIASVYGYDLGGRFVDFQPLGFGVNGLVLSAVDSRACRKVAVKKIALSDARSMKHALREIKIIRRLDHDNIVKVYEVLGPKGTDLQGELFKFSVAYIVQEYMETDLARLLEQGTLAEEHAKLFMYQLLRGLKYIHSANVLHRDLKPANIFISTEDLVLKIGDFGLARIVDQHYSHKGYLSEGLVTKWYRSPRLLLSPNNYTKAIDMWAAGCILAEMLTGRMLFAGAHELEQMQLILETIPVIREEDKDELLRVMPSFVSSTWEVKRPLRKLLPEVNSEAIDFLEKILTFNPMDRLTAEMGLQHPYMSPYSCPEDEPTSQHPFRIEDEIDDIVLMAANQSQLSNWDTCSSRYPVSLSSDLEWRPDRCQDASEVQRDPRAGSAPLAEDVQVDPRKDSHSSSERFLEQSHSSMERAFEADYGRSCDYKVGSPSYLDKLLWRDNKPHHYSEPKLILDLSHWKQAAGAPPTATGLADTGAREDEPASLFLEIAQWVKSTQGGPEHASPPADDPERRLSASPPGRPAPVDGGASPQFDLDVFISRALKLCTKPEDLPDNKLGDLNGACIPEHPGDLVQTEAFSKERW

MAPKAPK2 (human) = MAPKAPK2 (human) (UniProt P49137)
MAPKAPK5 (human) = MAPKAPK5 (human) (UniProt Q8IW41)
MARK3 (human) = MARK3 (human) (UniProt P27448)
MKNK2 (human) = MKNK2 (human) (UniProt Q9HBH9)
MUSK (human) = MUSK (human) (UniProt O15146)
MYLK2 (human) = MYLK2 (human) (UniProt Q9H1R3)
NEK2 (human) = NEK2 (human) (UniProt P51955)
NTRK1 (human) = NTRK1 (human) (UniProt P04629)
Chain of NTRK1 (human) (P04629 whole entry, looked up): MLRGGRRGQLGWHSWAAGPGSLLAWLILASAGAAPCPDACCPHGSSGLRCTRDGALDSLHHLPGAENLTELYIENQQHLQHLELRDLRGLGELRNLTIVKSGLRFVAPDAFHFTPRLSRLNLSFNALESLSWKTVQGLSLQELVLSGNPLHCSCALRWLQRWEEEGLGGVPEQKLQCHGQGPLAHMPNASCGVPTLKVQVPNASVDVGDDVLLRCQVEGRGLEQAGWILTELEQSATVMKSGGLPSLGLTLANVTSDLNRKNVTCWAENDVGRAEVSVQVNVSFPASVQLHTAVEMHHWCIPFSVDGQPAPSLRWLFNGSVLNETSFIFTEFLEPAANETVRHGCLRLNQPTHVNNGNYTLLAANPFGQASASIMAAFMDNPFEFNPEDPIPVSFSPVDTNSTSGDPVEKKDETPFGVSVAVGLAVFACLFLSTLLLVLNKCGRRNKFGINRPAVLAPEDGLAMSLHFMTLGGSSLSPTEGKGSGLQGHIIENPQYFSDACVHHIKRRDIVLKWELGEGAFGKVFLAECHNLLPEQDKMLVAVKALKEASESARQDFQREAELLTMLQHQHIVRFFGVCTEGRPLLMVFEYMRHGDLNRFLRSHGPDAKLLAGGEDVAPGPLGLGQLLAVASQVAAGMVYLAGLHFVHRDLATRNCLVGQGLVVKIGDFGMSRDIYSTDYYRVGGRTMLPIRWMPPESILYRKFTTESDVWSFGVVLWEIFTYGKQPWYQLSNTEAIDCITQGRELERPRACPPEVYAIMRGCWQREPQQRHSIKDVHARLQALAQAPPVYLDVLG

PAK3 (human) = PAK3 (human) (UniProt O75914)
Chain of PAK3 (human) (O75914 whole entry, looked up): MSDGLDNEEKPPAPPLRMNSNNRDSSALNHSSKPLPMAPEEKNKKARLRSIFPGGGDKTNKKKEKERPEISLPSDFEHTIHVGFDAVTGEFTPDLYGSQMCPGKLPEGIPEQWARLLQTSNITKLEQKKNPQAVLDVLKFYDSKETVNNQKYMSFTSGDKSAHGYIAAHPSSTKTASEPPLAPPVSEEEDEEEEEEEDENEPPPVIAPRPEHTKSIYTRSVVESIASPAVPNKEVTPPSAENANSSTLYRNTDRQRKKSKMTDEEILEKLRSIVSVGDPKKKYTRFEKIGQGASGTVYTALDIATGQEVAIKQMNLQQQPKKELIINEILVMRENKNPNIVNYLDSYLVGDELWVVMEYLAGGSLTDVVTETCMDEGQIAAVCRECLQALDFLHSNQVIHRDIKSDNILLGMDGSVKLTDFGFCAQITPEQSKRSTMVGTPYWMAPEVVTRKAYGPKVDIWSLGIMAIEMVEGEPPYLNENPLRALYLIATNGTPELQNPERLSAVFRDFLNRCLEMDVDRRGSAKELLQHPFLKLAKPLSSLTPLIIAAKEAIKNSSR

PAK6 (human) = PAK6 (human) (UniProt Q9NQU5)
PIK3CB (human) = PIK3CB (human) (UniProt P42338)
Chain of PIK3CB (human) (P42338 whole entry, looked up): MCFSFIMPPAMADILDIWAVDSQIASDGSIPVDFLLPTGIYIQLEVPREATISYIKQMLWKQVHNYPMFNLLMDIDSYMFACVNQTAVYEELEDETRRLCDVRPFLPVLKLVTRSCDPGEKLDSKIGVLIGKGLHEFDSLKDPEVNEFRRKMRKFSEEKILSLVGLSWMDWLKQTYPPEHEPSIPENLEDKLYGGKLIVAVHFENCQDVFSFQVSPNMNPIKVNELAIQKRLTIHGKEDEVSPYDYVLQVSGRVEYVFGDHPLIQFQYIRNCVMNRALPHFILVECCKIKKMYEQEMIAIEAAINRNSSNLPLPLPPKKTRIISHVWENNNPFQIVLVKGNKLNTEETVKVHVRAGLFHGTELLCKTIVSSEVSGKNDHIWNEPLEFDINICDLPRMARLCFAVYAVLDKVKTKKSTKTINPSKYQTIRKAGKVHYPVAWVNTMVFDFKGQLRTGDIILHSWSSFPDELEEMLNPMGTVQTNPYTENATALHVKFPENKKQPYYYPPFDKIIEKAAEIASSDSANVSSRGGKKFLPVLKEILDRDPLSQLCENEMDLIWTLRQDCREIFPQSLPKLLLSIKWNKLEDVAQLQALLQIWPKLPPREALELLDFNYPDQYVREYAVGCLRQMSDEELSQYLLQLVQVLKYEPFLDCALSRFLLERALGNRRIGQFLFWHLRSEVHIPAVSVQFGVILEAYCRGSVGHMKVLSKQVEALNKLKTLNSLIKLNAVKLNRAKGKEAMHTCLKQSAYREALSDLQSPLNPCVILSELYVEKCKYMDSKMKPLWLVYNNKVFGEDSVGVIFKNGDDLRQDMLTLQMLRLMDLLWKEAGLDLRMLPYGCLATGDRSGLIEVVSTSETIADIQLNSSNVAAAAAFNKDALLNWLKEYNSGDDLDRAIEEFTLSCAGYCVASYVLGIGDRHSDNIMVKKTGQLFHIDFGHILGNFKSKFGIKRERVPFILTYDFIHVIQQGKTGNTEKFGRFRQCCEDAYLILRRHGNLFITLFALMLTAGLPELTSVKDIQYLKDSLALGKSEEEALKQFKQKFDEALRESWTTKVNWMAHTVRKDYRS

PIM1 (human) = PIM1 (human) (UniProt P11309)
PIM2 (human) = PIM2 (human) (UniProt Q9P1W9)
PRKCD (human) = PRKCD (human) (UniProt Q05655)
PRKD1 (human) = PRKD1 (human) (UniProt Q15139)
RIPK2 (human) = RIPK2 (human) (UniProt O43353)
ROCK2 (human) = ROCK2 (human) (UniProt O75116)
ROS1 (human) = ROS1 (human) (UniProt P08922)
SIK1 (human) = SIK1 (human) (UniProt P57059)
SRPK2 (human) = SRPK2 (human) (UniProt P78362)
TAOK3 (human) = TAOK3 (human) (UniProt Q9H2K8)
TTK (human) = TTK (human) (UniProt P33981)
Chain of TTK (human) (P33981 whole entry, looked up): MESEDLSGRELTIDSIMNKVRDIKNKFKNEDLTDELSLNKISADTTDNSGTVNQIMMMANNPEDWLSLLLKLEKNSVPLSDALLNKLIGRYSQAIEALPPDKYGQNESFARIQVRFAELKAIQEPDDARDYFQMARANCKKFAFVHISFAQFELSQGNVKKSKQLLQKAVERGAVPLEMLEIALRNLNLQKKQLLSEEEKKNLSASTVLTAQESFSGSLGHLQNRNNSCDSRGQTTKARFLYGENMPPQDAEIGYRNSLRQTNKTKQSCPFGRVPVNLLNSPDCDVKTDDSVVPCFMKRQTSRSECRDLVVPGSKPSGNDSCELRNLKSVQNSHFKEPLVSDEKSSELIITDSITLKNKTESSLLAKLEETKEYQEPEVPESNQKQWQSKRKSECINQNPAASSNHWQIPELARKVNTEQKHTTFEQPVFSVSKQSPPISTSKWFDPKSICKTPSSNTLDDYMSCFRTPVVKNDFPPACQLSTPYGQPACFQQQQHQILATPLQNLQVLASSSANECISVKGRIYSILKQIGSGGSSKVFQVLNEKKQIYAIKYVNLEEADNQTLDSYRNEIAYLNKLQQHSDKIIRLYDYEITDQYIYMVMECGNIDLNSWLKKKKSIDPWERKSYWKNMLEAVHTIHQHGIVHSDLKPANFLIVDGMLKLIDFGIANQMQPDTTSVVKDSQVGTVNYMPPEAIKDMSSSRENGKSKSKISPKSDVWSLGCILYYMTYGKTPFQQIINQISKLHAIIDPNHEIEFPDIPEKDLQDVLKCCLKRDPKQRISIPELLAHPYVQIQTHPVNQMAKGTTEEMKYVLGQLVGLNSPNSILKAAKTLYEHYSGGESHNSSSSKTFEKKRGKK

ULK2 (human) = ULK2 (human) (UniProt Q8IYT8)

Chain of AURKB (human) (Q96GD4 whole entry, looked up): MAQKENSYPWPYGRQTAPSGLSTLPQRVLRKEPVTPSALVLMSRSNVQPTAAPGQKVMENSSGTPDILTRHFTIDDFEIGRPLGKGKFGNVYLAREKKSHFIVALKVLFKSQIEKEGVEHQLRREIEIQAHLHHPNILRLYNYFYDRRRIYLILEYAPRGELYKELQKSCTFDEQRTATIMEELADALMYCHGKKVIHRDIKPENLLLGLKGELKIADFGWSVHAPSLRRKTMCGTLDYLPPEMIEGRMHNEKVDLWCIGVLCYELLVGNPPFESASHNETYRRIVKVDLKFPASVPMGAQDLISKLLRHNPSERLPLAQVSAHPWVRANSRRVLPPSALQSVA

O=C(NC1CC1)c1cccc(-c2ccc3c(NC(=O)C4CC4)n[nH]c3c2)c1 showed a kinase still bound, per cent of control (AKT2 (human)) of 91%, a kinase still bound, per cent of control (AURKB (human)) of 30% and a kinase still bound, per cent of control (BMPR2 (human)) of 91%. It also gave a kinase still bound, per cent of control (CAMK2G (human)) of 89%, a kinase still bound, per cent of control (CDK19 (human)) of 79% and a kinase still bound, per cent of control (CSK (human)) of 84%. The kinase still bound, per cent of control (CSNK2A2 (human)) was 16%, the kinase still bound, per cent of control (DCLK1 (human)) was 96% and the kinase still bound, per cent of control (FLT3 (human)) was 63%. For the same compound, the kinase still bound, per cent of control (FRK (human)) was 89%, the kinase still bound, per cent of control (GSK3B (human)) was 97% and the kinase still bound, per cent of control (IKBKB (human)) was 78%. It also gave a kinase still bound, per cent of control (INSRR (human)) of 95%, a kinase still bound, per cent of control (KDR (human)) of 93% and a kinase still bound, per cent of control (LTK (human)) of 100%. It also gave a kinase still bound, per cent of control (MAP2K3 (human)) of 33%, a kinase still bound, per cent of control (MAPK1 (human)) of 100% and a kinase still bound, per cent of control (MAPK4 (human)) of 100%. For the same compound, the kinase still bound, per cent of control (MAPKAPK2 (human)) was 100%, the kinase still bound, per cent of control (MAPKAPK5 (human)) was 99% and the kinase still bound, per cent of control (MARK3 (human)) was 75%. It also gave a kinase still bound, per cent of control (MKNK2 (human)) of 50%, a kinase still bound, per cent of control (MUSK (human)) of 91% and a kinase still bound, per cent of control (MYLK2 (human)) of 12%. It also gave a kinase still bound, per cent of control (NEK2 (human)) of 80%, a kinase still bound, per cent of control (NTRK1 (human)) of 60% and a kinase still bound, per cent of control (PAK3 (human)) of 60%. For the same compound, the kinase still bound, per cent of control (PAK6 (human)) was 61%, the kinase still bound, per cent of control (PIK3CB (human)) was 100% and the kinase still bound, per cent of control (PIM1 (human)) was 70%. It also gave a kinase still bound, per cent of control (PIM2 (human)) of 100%, a kinase still bound, per cent of control (PRKCD (human)) of 100% and a kinase still bound, per cent of control (PRKD1 (human)) of 100%. For the same compound, the kinase still bound, per cent of control (RIPK2 (human)) was 72%, the kinase still bound, per cent of control (ROCK2 (human)) was 53% and the kinase still bound, per cent of control (ROS1 (human)) was 100%. The kinase still bound, per cent of control (SIK1 (human)) was 84%, the kinase still bound, per cent of control (SRPK2 (human)) was 58% and the kinase still bound, per cent of control (TAOK3 (human)) was 33%. The kinase still bound, per cent of control (TTK (human)) was 42% and the kinase still bound, per cent of control (ULK2 (human)) was 77%.
Compound CN(C)C/C=C/C(=O)Nc1cccc(Nc2ncc3c(n2)N(C)c2ccccc2C(=O)N3C)c1 has a kinase still bound, per cent of control (AKT2 (human)) of 99%, a kinase still bound, per cent of control (AURKB (human)) of 0.1% and a kinase still bound, per cent of control (BMPR2 (human)) of 71%. It also gave a kinase still bound, per cent of control (CAMK2G (human)) of 46%, a kinase still bound, per cent of control (CDK19 (human)) of 100% and a kinase still bound, per cent of control (CSK (human)) of 82%. For the same compound, the kinase still bound, per cent of control (CSNK2A2 (human)) was 87%, the kinase still bound, per cent of control (DCLK1 (human)) was 4% and the kinase still bound, per cent of control (FLT3 (human)) was 73%. For the same compound, the kinase still bound, per cent of control (FRK (human)) was 18%, the kinase still bound, per cent of control (GSK3B (human)) was 82% and the kinase still bound, per cent of control (IKBKB (human)) was 100%. It also gave a kinase still bound, per cent of control (INSRR (human)) of 100%, a kinase still bound, per cent of control (KDR (human)) of 90% and a kinase still bound, per cent of control (LTK (human)) of 100%. It also gave a kinase still bound, per cent of control (MAP2K3 (human)) of 100%, a kinase still bound, per cent of control (MAPK1 (human)) of 100% and a kinase still bound, per cent of control (MAPK4 (human)) of 100%. For the same compound, the kinase still bound, per cent of control (MAPKAPK2 (human)) was 100%, the kinase still bound, per cent of control (MAPKAPK5 (human)) was 85% and the kinase still bound, per cent of control (MARK3 (human)) was 10%. For the same compound, the kinase still bound, per cent of control (MKNK2 (human)) was 0.3%, the kinase still bound, per cent of control (MUSK (human)) was 100% and the kinase still bound, per cent of control (MYLK2 (human)) was 46%. The kinase still bound, per cent of control (NEK2 (human)) was 62%, the kinase still bound, per cent of control (NTRK1 (human)) was 18% and the kinase still bound, per cent of control (PAK3 (human)) was 14%. The kinase still bound, per cent of control (PAK6 (human)) was 66%, the kinase still bound, per cent of control (PIK3CB (human)) was 32% and the kinase still bound, per cent of control (PIM1 (human)) was 66%. The kinase still bound, per cent of control (PIM2 (human)) was 100%, the kinase still bound, per cent of control (PRKCD (human)) was 100% and the kinase still bound, per cent of control (PRKD1 (human)) was 15%. It also gave a kinase still bound, per cent of control (RIPK2 (human)) of 18%, a kinase still bound, per cent of control (ROCK2 (human)) of 58% and a kinase still bound, per cent of control (ROS1 (human)) of 27%. It also gave a kinase still bound, per cent of control (SIK1 (human)) of 2.7%, a kinase still bound, per cent of control (SRPK2 (human)) of 100% and a kinase still bound, per cent of control (TAOK3 (human)) of 0%. For the same compound, the kinase still bound, per cent of control (TTK (human)) was 28% and the kinase still bound, per cent of control (ULK2 (human)) was 0.2%.

From the kinase profiling compilation of Christmann-Franck et al. (2016)
